# Where “and” joins values, the source holds several entries; their conditions need not be identical. Identical values can stand only once.
# Test system: 885512-296-R-J2-PDC complex spheroid growth, % test/control
# Experiment: Anticancer human tumor 885512-296-R-J2-PDC patient-derived breast carcinoma cell line growth inhibition [AhR]
# Conditions: for viability, T/C: stronger effect = lower value
# Outline: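 Spheroids combined tumor cells with HUVEC endothelial cells and human MSCs as stroma. AhR antagonists were paired with standard or investigational drugs, each dosed in half-log steps down from near clinical Cmax, or from 10 microM where Cmax was unknown.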
# [1] = curve of first compound, second compound 0.1 µM
# [2] = curve of first compound, second compound 0.316 µM
# [3] = curve of first compound, second compound 1 µM
# [4] = curve of first compound, second compound 3.16 µM
# [5] = curve of first compound, second compound 10 µM
# [6] = second compound 0.1 µM, first compound 0.00949 µM
# [7] = second compound 0.1 µM, first compound 0.03 µM
# [8] = second compound 0.1 µM, first compound 0.0949 µM
# [9] = second compound 0.1 µM, first compound 0.3 µM
# [10] = second compound 0.316 µM, first compound 0.00949 µM
# [11] = second compound 0.316 µM, first compound 0.03 µM
# [12] = second compound 0.316 µM, first compound 0.0949 µM
# [13] = second compound 0.316 µM, first compound 0.3 µM
# [14] = second compound 1 µM, first compound 0.00949 µM
# [15] = second compound 1 µM, first compound 0.03 µM
# [16] = second compound 1 µM, first compound 0.0949 µM
# [17] = second compound 1 µM, first compound 0.3 µM
# [18] = second compound 3.16 µM, first compound 0.00949 µM
# [19] = second compound 3.16 µM, first compound 0.03 µM
# [20] = second compound 3.16 µM, first compound 0.0949 µM
# [21] = second compound 3.16 µM, first compound 0.3 µM
# [22] = second compound 10 µM, first compound 0.00949 µM
# [23] = second compound 10 µM, first compound 0.03 µM
# [24] = second compound 10 µM, first compound 0.0949 µM
# [25] = second compound 10 µM, first compound 0.3 µM
# 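Further: spheroids exposed to compounds for seven days.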
smiles,measurement,setting,value
CCN(c1cc(-c2ccc(CN3CCOCC3)cc2)cc(C(=O)NCc2c(C)cc(C)[nH]c2=O)c1C)C1CCOCC1 + CC(CO)NC(=O)c1cc(-c2ccc(Cl)cc2)nn(-c2cnn(C)c2)c1=O,IC50,[1],> 3000 nM
same,IC50,[2],> 3000 nM
same,IC50,[3],> 3000 nM
same,IC50,[4],> 3000 nM
same,IC50,[5],> 3000 nM
same,"viability, T/C",[6],105%
same,"viability, T/C",[7],96.8%
same,"viability, T/C",[8],83.3%
same,"viability, T/C",[9],79.6%
same,"viability, T/C","second compound 0.1 µM, first compound 0.949 µM",74.9%
same,"viability, T/C","second compound 0.1 µM, first compound 3 µM",84.1%
same,"viability, T/C",[10],106%
same,"viability, T/C",[11],102%
same,"viability, T/C",[12],93%
same,"viability, T/C",[13],78.9%
same,"viability, T/C","second compound 0.316 µM, first compound 0.949 µM",70.5%
same,"viability, T/C","second compound 0.316 µM, first compound 3 µM",69.1%
same,"viability, T/C",[14],88.8%
same,"viability, T/C",[15],111%
same,"viability, T/C",[16],93.3%
same,"viability, T/C",[17],82%
same,"viability, T/C","second compound 1 µM, first compound 0.949 µM",80.3%
same,"viability, T/C","second compound 1 µM, first compound 3 µM",80.9%
same,"viability, T/C",[18],88.3%
same,"viability, T/C",[19],90.3%
same,"viability, T/C",[20],82.9%
same,"viability, T/C",[21],86.7%
same,"viability, T/C","second compound 3.16 µM, first compound 0.949 µM",71.4%
same,"viability, T/C","second compound 3.16 µM, first compound 3 µM",78.2%
same,"viability, T/C",[22],94.4%
same,"viability, T/C",[23],97.5%
same,"viability, T/C",[24],88%
same,"viability, T/C",[25],86.4%
same,"viability, T/C","second compound 10 µM, first compound 0.949 µM",68.5%
same,"viability, T/C","second compound 10 µM, first compound 3 µM",71.7%
COc1cccc2c1C(=O)c1c(O)c3c(c(O)c1C2=O)CC(O)(C(=O)CO)CC3OC1CC(N)C(O)C(C)O1 (configuration not stated) + CC(CO)NC(=O)c1cc(-c2ccc(Cl)cc2)nn(-c2cnn(C)c2)c1=O,IC50,[1],< 31.6 nM
same,IC50,[2],< 31.6 nM
same,IC50,[3],< 31.6 nM
same,IC50,[4],< 31.6 nM
same,IC50,[5],< 31.6 nM
same,"viability, T/C","second compound 0.1 µM, first compound 0.0316 µM",26.3%
same,"viability, T/C","second compound 0.1 µM, first compound 0.1 µM",15.5%
same,"viability, T/C","second compound 0.1 µM, first compound 0.316 µM",6.77%
same,"viability, T/C","second compound 0.1 µM, first compound 1 µM",0.48%
same,"viability, T/C","second compound 0.1 µM, first compound 3.16 µM",0.93%
same,"viability, T/C","second compound 0.1 µM, first compound 10 µM",0.78%
same,"viability, T/C","second compound 0.316 µM, first compound 0.0316 µM",21.1%
same,"viability, T/C","second compound 0.316 µM, first compound 0.1 µM",14.9%
same,"viability, T/C","second compound 0.316 µM, first compound 0.316 µM",7.09%
same,"viability, T/C","second compound 0.316 µM, first compound 1 µM",0.26%
same,"viability, T/C","second compound 0.316 µM, first compound 3.16 µM",1.12%
same,"viability, T/C","second compound 0.316 µM, first compound 10 µM",0.78%
same,"viability, T/C","second compound 1 µM, first compound 0.0316 µM",24.6%
same,"viability, T/C","second compound 1 µM, first compound 0.1 µM",14.6%
same,"viability, T/C","second compound 1 µM, first compound 0.316 µM",6.76%
same,"viability, T/C","second compound 1 µM, first compound 1 µM",0.2%
same,"viability, T/C","second compound 1 µM, first compound 3.16 µM",1.11%
same,"viability, T/C","second compound 1 µM, first compound 10 µM",1.04%
same,"viability, T/C","second compound 3.16 µM, first compound 0.0316 µM",21.3%
same,"viability, T/C","second compound 3.16 µM, first compound 0.1 µM",21.2%
same,"viability, T/C","second compound 3.16 µM, first compound 0.316 µM",3.93%
same,"viability, T/C","second compound 3.16 µM, first compound 1 µM",0.22%
same,"viability, T/C","second compound 3.16 µM, first compound 3.16 µM",0.98%
same,"viability, T/C","second compound 3.16 µM, first compound 10 µM",0.67%
same,"viability, T/C","second compound 10 µM, first compound 0.0316 µM",15.4%
same,"viability, T/C","second compound 10 µM, first compound 0.1 µM",19.3%
same,"viability, T/C","second compound 10 µM, first compound 0.316 µM",3.22%
same,"viability, T/C","second compound 10 µM, first compound 1 µM",0.46%
same,"viability, T/C","second compound 10 µM, first compound 3.16 µM",0.54%
same,"viability, T/C","second compound 10 µM, first compound 10 µM",0.83%
CCc1c2c(nc3ccc(O)cc13)-c1cc3c(c(=O)n1C2)COC(=O)[C@]3(O)CC + Cc1ccccc1N=Nc1ccc(NC(=O)c2ccnn2C)c(C)c1,IC50,[1],< 0.949 nM
same,IC50,[2],< 0.949 nM
same,IC50,[3],< 0.949 nM
same,IC50,[4],< 0.949 nM
same,IC50,[5],< 0.949 nM
same,"viability, T/C","second compound 0.1 µM, first compound 0.000949 µM",15.3%
same,"viability, T/C","second compound 0.1 µM, first compound 0.003 µM",7.41%
same,"viability, T/C",[6],6.43%
same,"viability, T/C",[7],4.14%
same,"viability, T/C",[8],1.83%
same,"viability, T/C",[9],1.03%
same,"viability, T/C","second compound 0.316 µM, first compound 0.000949 µM",17.7%
same,"viability, T/C","second compound 0.316 µM, first compound 0.003 µM",7.53%
same,"viability, T/C",[10],5.71%
same,"viability, T/C",[11],3.77%
same,"viability, T/C",[12],1.78%
same,"viability, T/C",[13],1.57%
same,"viability, T/C","second compound 1 µM, first compound 0.000949 µM",16.8%
same,"viability, T/C","second compound 1 µM, first compound 0.003 µM",6.58%
same,"viability, T/C",[14],5.11%
same,"viability, T/C",[15],4.84%
same,"viability, T/C",[16],2.6%
same,"viability, T/C",[17],1.23%
same,"viability, T/C","second compound 3.16 µM, first compound 0.000949 µM",17.2%
same,"viability, T/C","second compound 3.16 µM, first compound 0.003 µM",6.69%
same,"viability, T/C",[18],5.43%
same,"viability, T/C",[19],4.44%
same,"viability, T/C",[20],2.64%
same,"viability, T/C",[21],1.47%
same,"viability, T/C","second compound 10 µM, first compound 0.000949 µM",14.9%
same,"viability, T/C","second compound 10 µM, first compound 0.003 µM",7.42%
same,"viability, T/C",[22],5.87%
same,"viability, T/C",[23],3.54%
same,"viability, T/C",[24],2.17%
same,"viability, T/C",[25],1.29%
CCc1c2c(nc3ccc(O)cc13)-c1cc3c(c(=O)n1C2)COC(=O)[C@]3(O)CC,"viability, T/C",compound 0.000949 µM,17.5% and 17.7% and 9.88%
same,"viability, T/C",compound 0.003 µM,9.21% and 7.45% and 8.07%
same,"viability, T/C",compound 0.00949 µM,6.22% and 5.99% and 5.4%
same,"viability, T/C",compound 0.03 µM,4.21% and 4.52% and 3.14%
same,"viability, T/C",compound 0.0949 µM,2.53% and 2.06% and 1.76%
same,"viability, T/C",compound 0.3 µM,1.46% and 1.11% and 1.27%
same,IC50,curve of compound,< 0.949 nM
